# According to ChEMBL document CHEMBL1140845, “Synthesis of deoxygenated alpha(1-->5)-linked arabinofuranose disaccharides as substrates and inhibitors of arabinosyltransferases of Mycobacterium tuberculosis” (Bioorg Med Chem, 2009):
# Activity calls are given as the source filed them. No cut-off for these calls is given here.
# System: Mycobacterium tuberculosis
# Experiment: Antimycobacterial activity against multidrug resistant Mycobacterium tuberculosis H37Ra at 12.8 to 128 ug/mL
# Format: functional, organism-based
row,Compound,Activity
1,CCCCCCCCO[C@@H]1C[C@H](O)[C@@H](CO[C@H]2O[C@H](CO)[C@@H](O)[C@@H]2O)O1,Active
2,CCCCCCCCO[C@H]1O[C@H](CO[C@H]2O[C@H](CO)[C@@H](O)[C@@H]2O)[C@@H](O)[C@@H]1F,Active
3,CCCCCCCCO[C@H]1O[C@H](CO[C@H]2O[C@H](CO)[C@@H](O)[C@@H]2O)C[C@@H]1O,Active
